Patent US6172087A, “N-oxide of heterocyclic ester, amide, thioester, or ketone hair growth compositions and uses” (GPI NIL Holding, Inc., priority 1998, dated 2001)
“Also recorded” adds a separate entry of the source.

Experiments:
C57 black 6 mice = test: In Vivo Hair Generation Test With C57 Black 6 Mice, Experiment A; conditions: 30 μM, topical, every 48 hours (3 applications), after 6 weeks
Source text: Care was taken not to nick or cause abrasion to the underlaying dermal layers. The animals were in anagen growth phase, as indicated by the pinkish color of the skin. […] Hair growth was quantitated by the percent of shaved area covered by new hair growth during this time period.

[1] = cited from earlier work

Compound | hair regrowth in the shaved area (in words) (C57 black 6 mice) | hair growth on topical, but not oral, application (in words) [1]
CCC(C)(C)C(=O)C(=O)N1CCC[C@H]1C(=O)OCCCc1cccnc1 [GPI 1046, 3-(3-pyridyl)-1-propyl(2s)-1-(3,3-dimethyl-1,2-dioxopentyl)-2-pyrrolidinecarboxylate] | essentially complete hair regrowth and their shaved areas were indistinguishable from unshaven C57 black 6 mice; also recorded: essentially, complete hair regrowth in the shaved area | –
C=CC[C@@H]1/C=C(\C)C[C@H](C)C[C@H](OC)[C@H]2O[C@@](O)(C(=O)C(=O)N3CCCC[C@H]3C(=O)O[C@H](/C(C)=C/[C@@H]3CC[C@@H](O)[C@H](OC)C3)[C@H](C)[C@@H](O)CC1=O)[C@H](C)C[C@@H]2OC [FK506] | – | stimulates hair growth in a dose-dependent manner
